Here are results for one compound from publication PMC5719402, “Protein-Structure Assisted Optimization of 4,5-Dihydroxypyrimidine-6-Carboxamide Inhibitors of Influenza Virus Endonuclease” (Scientific Reports, 2017).

In this experiment the target is wild type PAN ΔLoop protein (Influenza A virus, UniProt C3W5S0, DEL51-57/DEL61-72/E59G). The experiment is classed as biochemical, influenza A/California/04/2009 H1N1. The note with it: read-out: FRET IC50.

With `O=C(O)C(=O)CC(=O)c1ccccc1` [DPBA, reference compound], the IC50 amounted to 98 ± 3 nM.
